Measurements taken from PubChem BioAssay (NCI).
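Cultured in 96-well plates, cells were exposed to test compound for 48 hours across five concentrations. At the TGI there is no net growth.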

Experiments:
Assay in all cases: DTP human tumour cell line panel, 48 h
[1] = tested on: HOP-92 NSCLC
[2] = tested on: SNB-75 CNS
[3] = tested on: UACC-62 melanoma
[4] = tested on: HCT-116 colon
[5] = tested on: HL-60(TB) leukemia
[6] = tested on: MALME-3M melanoma
[7] = tested on: NCI-H522 lung
[8] = tested on: SN12C renal
[9] = tested on: SR leukemia
[10] = tested on: SF-268 CNS
[11] = tested on: BT-549 breast

Row | Compound | TGI [1] [µM] | TGI [2] [µM] | TGI [3] [µM] | TGI [4] [µM] | TGI [5] [µM] | TGI [6] [µM] | TGI [7] [µM] | TGI [8] [µM] | TGI [9] [µM] | TGI [10] [µM] | TGI [11] [µM]
1 | CCOC(OCC)C(CC)[Se]c1ccccc1 (stereo not given) | > 100 | > 100 | > 100 | > 100 | 19 | > 100 | 46.2 | > 100 | 47.7 | > 100 | 
2 | O=c1[nH]c(=O)n(COCc2ccccc2)c2ccccc12 | > 100 | 54.9 | > 100 | > 100 | > 100 |  |  | > 100 | > 100 |  | 
3 | COc1ccc(C2=C(Cl)c3cc(OC)c(OC)cc3C2)cc1OC | > 100 | > 100 | > 100 | > 100 | > 100 | > 100 | > 100 | > 100 | > 100 | > 100 | 
4 | O=c1[nH]nc(Cc2ccc(Cl)cc2)n1/N=C/c1c[nH]c2ccccc12 | > 100 | > 100 | > 100 | > 100 | > 100 | > 100 | > 100 | > 100 | > 100 | > 100 | 
5 | NCCS(=O)(=O)O | > 100 | > 100 |  | > 100 | > 100 | > 100 | > 100 | > 100 | > 100 | > 100 | 
6 | COc1cc2[nH]c(=O)c3cc(C)cc4c(Cl)nc(c1OC)c2c43 | > 100 | 85.3 | 96 | > 100 | > 100 | 62 | > 100 |  |  | 84.8 | > 100
7 | Cc1ccc(C#CS(=O)(=O)C(F)(F)F)cc1 | > 100 | > 100 | > 100 | > 100 | > 31.6 | > 100 | > 100 | > 100 |  | > 100 | 
8 | Cc1cc2oc3c(ccc(=O)n3C)c(=O)c2c(C)c1Cl | > 100 | > 100 | > 100 | > 100 | > 100 | > 100 | > 100 | > 100 | > 100 | > 100 | 
9 | Cc1ccc(NC(=O)/C(=N/NC(=O)C[N+](C)(C)C)c2nc3ccccc3[nH]c2=O)cc1 | > 100 | > 100 | > 100 | > 100 |  | > 100 |  | > 100 | > 100 | > 100 | 
10 | Cn1cnc(SC2=C3C(=O)C=C4S[C@H]5C[C@]42c2c(c(O)c4c6c2=[N+]3CCC=6C=N4)N5)c1CC(N)C(=O)O (stereo not given in full) | 34.5 | 34.1 | 29.2 | 13.3 | 38.8 | 12.4 | 16.4 | 10.2 | 48.8 | 25.1 | 
11 | O=S(c1ccc(Cl)cc1)c1ccccc1C1=NCCN1 (stereo not given) |  | > 100 | > 100 | > 100 | > 100 | > 100 | > 100 | > 100 |  | > 100 | > 100
12 | C=CCOCn1ccc(N)nc1=O |  | > 100 | > 100 | > 100 | > 100 | > 100 | > 100 | > 100 | > 100 | > 100 | > 100
13 | CC(=O)O[C@H]1C[C@](C)(O)[C@@]23CC([C@@H](OC(=O)C(C)(C)O)[C@@H](OC(C)=O)C2(COC(=O)c2ccccc2)[C@H]1OC(C)=O)C(C)(C)O3 (stereo not given in full) | > 100 |  | > 100 | > 100 |  | > 100 | > 100 | > 100 |  | > 100 | > 100
14 | COc1cccc([C@@H]2CC(=O)c3cc4c(cc3N2)OCO4)c1 | > 100 | > 100 | > 100 | > 100 |  |  |  | > 100 |  | > 100 | 
15 | CC(=O)N1C(Nc2cccc3nc(C)ccc23)CCN1c1ccccc1 (stereo not given) |  | > 10 |  | > 10 | > 10 | > 10 | > 10 | > 10 | > 10 | > 10 | > 10
16 | O=C1C=C(O)c2c(O)ccc(O)c2C1=O | > 100 | > 100 | > 100 | > 100 | > 100 | > 100 | > 100 |  |  | > 100 | > 100
17 | Cc1ccc(N=C2SC(=NN(C)C)SC2=Nc2ccc(C)cc2)cc1 | > 100 | > 100 | > 100 | > 100 | > 100 | > 100 | > 100 | > 100 | > 100 | > 100 | 
18 | OCC1OC(c2ccccc2)CC1O (stereo not given) |  | > 100 | > 100 | > 100 | > 100 |  |  | > 100 | > 100 |  | 
19 | N#CCc1nc2cc(C(F)(F)F)ccc2s1 | 48.1 | > 100 |  | 95.2 |  | > 100 | 34.5 | > 100 |  | > 100 | > 100
20 | O=Cc1c(Br)[nH]c2ccccc12 | > 100 | > 100 | > 100 | > 100 | > 100 | > 100 | > 100 | > 100 |  | > 100 | 
21 | CC(=O)c1ccc2c3c1O[C@H]1c4[nH]c5ccccc5c4C[C@@]4(O)[C@@H](C2)N(CC2CC2)CC[C@]314 | 28.2 |  | 30.7 | 28.9 | 37 | 36.3 | 35.3 | 34.4 |  | 28.8 | 29.6
22 | CCN(CC)C1Oc2cc3c(cc2C(c2cccc(OC)c2O)C1C)OCO3 (stereo not given) |  | 23.1 | 28.5 | 21.1 | 7.18 | 21.7 | 7.3 | 16.4 | 25.3 | > 54 | > 44.9
